ChEMBL document CHEMBL1132010, “In vivo anti-HIV activity of (+)-calanolide A in the hollow fiber mouse model” (Bioorg Med Chem Lett, 1999)

Legend:
Mus musculus [1] = test: Compound dose (dosing schedule - q8h) that prevented a decrease in RT activity and p24 antigen production without increase in cell viability in mice.* dose was found to be toxic; type: functional
Mus musculus [2] = test: Compound dose (dosing schedule - q8h) that produced a decrease in RT activity without protection against decreased cell viability in mice; type: functional
Mus musculus [3] = test: Compound dose required to produce significant anti-HIV activity in mice after i.p. administration, given twice daily (q12h); type: functional
Mus musculus [4] = test: Compound dose required to produce significant anti-HIV activity in mice after oral administration, given twice daily (q12h); type: functional
[5] = Compound dose that was proved to be lethally toxic to mice (q24h); type: ADME; conditions: mouse, in vivo
[6] = Compound dose that was proved to be lethally toxic to mice (q12h); type: ADME; conditions: mouse, in vivo

CCCc1cc(=O)oc2c3c(c4c(c12)OC(C)(C)C=C4)O[C@H](C)[C@@H](C)[C@@H]3O [CALANOLIDE A] gave a Dose (Mus musculus [1]) of 150 mg/kg, a Dose (Mus musculus [2]) of 100 mg/kg and a Dose (Mus musculus [3]) of 200 mg/kg. The Dose (Mus musculus [4]) was 150 mg/kg, the Toxic [5] was 300 mg/kg and the Toxic [6] was 200 mg/kg.
